Test results: PMC10590419, “Structural and mechanistic insights into the inhibition of respiratory syncytial virus polymerase by a non-nucleoside inhibitor” (Communications Biology, 2023)

Assays:
[1] = system: RSV minigenome transcription and RNA replication; experiment: RSV minigenome assay in BSR-T7 cells; format: cell-based, respiratory syncytial virus
Procedure: RSV transcription and RNA replication were analyzed using a replication-deficient minigenome, in which the minigenome template contained a single nucleotide substitution in the trailer region, limiting it to the antigenome step of RNA replication and uncoupling transcription from replication. Minigenome transcription and replication were reconstituted intracellularly. BSR-T7 cells, a T7 RNA polymerase expressing cell line, were cultured in a 6-well dish and transfected with T7-driven plasmids that expressed the minigenome template (200 ng/ well), and the RSV proteins N (400 ng/ well), P (200 ng/ well), L (100 ng/ well) and M2-1 (100 ng/ well). Transfections were performed using Lipofectamine (Thermofisher) according to the manufacturer’s directions. […] Input minigenome RNA, antigenome RNA, and mRNAs were detected by subjecting RNA to electrophoresis in 1.5% agarose-formaldehyde gels in MOPS buffer, followed by Northern blotting using ^32P labeled riboprobes specific to negative sense minigenome (to detect the input RNA) and to positive sense antigenome and mRNAs. The same RNA samples were also analyzed by primer extension using ^32P end-labeled primers corresponding in sequence to nucleotides 15–39 of the leader region (to detect RNA initiated from the +1U and +3 C sites on the promoter). […] Quantification was performed by phosphorimage analysis. […]

[2] = system: RSV B clinical isolates and laboratory strains; experiment: Inhibition of RSV-B clinical isolates and laboratory strains, RT-qPCR, HeLa; format: cell-based; conditions: human respiratory syncytial virus, 6 strains, read-out: Median EC50
Procedure: Then, 100 µL of a HeLa cell suspension (5 × 10^4 cells/mL) in culture medium was added to each well. […] After 3 days of incubation, the supernatant was removed from wells. Plates were washed twice with ice-cold PBS (100 µL/well), and were then sealed and stored overnight at −80 °C. Next, 50 µL of lysis solution supplemented with DNAse was added to the plates and incubated for 5 min followed by the addition of 5 µL stop solution (Ambion Cell-to-CT bulk lysis reagent buffer). […] Roche) for cDNA synthesis. Reverse transcription was performed at 42 °C for 30 min, followed by denaturation at 95 °C for 5 min. […] The reaction consisted of a denaturation step (95 °C for 600 s), 45 cycles of denaturation (95 °C for 15 s) and annealing/elongation (60 °C for 60 s), and a step of cooling (40 °C for 10 s).

[3] = in vitro; conditions: human
[4] = in vitro; conditions: human; remark: listed apart in the source

## COc1cc(C(=O)NC[C@](O)(c2cc(C(C)(C)O)c(F)c(-c3ccc(F)cc3)n2)C(F)(F)F)cc2cc(C)nnc12 [JNJ-8003]
[1]
  antigenome RNA and mRNA (in words): dose dependent reduction
[2]
  EC50: 0.0001 µM
[3]
  CC50 at 3 days: 27 µM
[4]
  CC50: > 25 µM
